# Patent US20160341718A1, “METHODS FOR TESTING T CELL PRIMING EFFICACY IN A SUBJECT” (priority 2014, published 2016)
# Tested on: naïve ELA-specific CD8+ T cell precursors in HLA-A2+ PBMCs
# Assay: In vitro priming of ELA-specific CD8+ T cells from unfractionated PBMCs, ELA/HLA-A2 tetramer enumeration and CD45RA/CCR7 phenotype
# Assay type: cell-based, human
# Details: day 10 after priming of HLA-A2+ PBMCs with ELA-20 1 μM
# Source text: Naïve precursors specific for the HLA-A*02:01-restricted epitope [sequence] […] The frequency, phenotype and functional profiling of ELA-specific CD8+ T cells were typically determined on day 10 or 11. Purified naïve and memory CD8+ T cell subsets for priming experiments were obtained using T Cell Enrichment Column Kits (R&D Systems).
# ELA-specific CD8^+ T cells were quantified by flow cytometry using fluorochrome-labeled ELA/HLA-A*02:01 tetramers (FIG. 2A). […] For this purpose, we mixed purified naïve or memory CD8^+ T cells separately with autologous CD8-depleted PBMCs to initiate priming (FIG. 2B).
# Moreover, to ensure optimal immunogenicity, we used the heteroclitic sequence [sequence]
substance,measurement,value
lipopolysaccharide [TLR4L],magnitude of primed/expanded ELA tetramer+ CD8+ T cells,only marginal effects
